{"source": "patent US7994139B2", "about": "“Antiviral therapeutic agents” (BioCryst Pharmaceuticals, Inc., priority 2008, dated 2011)", "origin": "cited, not measured here", "system": "HCV", "data": [{"compound": "NC(=O)c1ncn([C@@H]2O[C@H](CO)[C@@H](O)[C@H]2O)n1", "note": "[Ribavirin, 1-β-D-ribofuranosyl-1-1,2,4-triazole-3-carboxamide]", "values": [{"measurement": "serum levels of HCV-RNA", "setting": "patients, used as sole treatment", "value": "does not lower serum levels of HCV-RNA"}, {"measurement": "patients in whom serum amino transferase levels are reduced to normal", "setting": "ribavirin alone", "value": 40, "unit": "%"}]}]}
